# Measured values as given in PMC4767141, “Discovery of Potent, Orally Bioavailable, Small-Molecule Inhibitors of WNT Signaling from a Cell-Based Pathway Screen” (Journal of Medicinal Chemistry, 2015).
# Where “and” joins values, the source holds several entries; their conditions need not be identical. Equal values may be shown once.
# Legend:
# α2 (non-selective) = experiment: CEREP binding panel; conditions: 10 μM, antagonist radioligand
# β2 (h) = target: T1, β2 (h) (Homo sapiens, UniProt P07550); experiment: CEREP binding panel; conditions: agonist radioligand, read-out: % Inhibition of Control Specific Binding
# T1 construct: purchased Millipore KinaseProfiler (kinases); Cerep (receptors and ion channels)
# CB1 (h) = target: T2, CB1 (h) (Homo sapiens, UniProt P21554); experiment: CEREP binding panel; conditions: 10 μM, agonist radioligand
# T2 construct: purchased Millipore KinaseProfiler (kinases); Cerep (receptors and ion channels)
# D1 (h) = target: T3, D1 (h) (Homo sapiens, UniProt P21728); experiment: CEREP binding panel; conditions: antagonist radioligand, read-out: % Inhibition of Control Specific Binding
# T3 construct: purchased Millipore KinaseProfiler (kinases); Cerep (receptors and ion channels)
# H1 (h) = target: T4, H1 (h) (Homo sapiens, UniProt P35367); experiment: CEREP binding panel; conditions: antagonist radioligand, read-out: % Inhibition of Control Specific Binding
# T4 construct: purchased Millipore KinaseProfiler (kinases); Cerep (receptors and ion channels)
# MC4 (h) = target: T5, MC4 (h) (Homo sapiens, UniProt P32245); experiment: CEREP binding panel; conditions: agonist radioligand, read-out: % Inhibition of Control Specific Binding
# T5 construct: purchased Millipore KinaseProfiler (kinases); Cerep (receptors and ion channels)
# M3 (h) = target: T6, M3 (h) (Homo sapiens, UniProt P20309); experiment: CEREP binding panel; conditions: antagonist radioligand, read-out: % Inhibition of Control Specific Binding
# T6 construct: purchased Millipore KinaseProfiler (kinases); Cerep (receptors and ion channels)
# NK2 (h) = target: T7, NK2 (h) (Homo sapiens, UniProt P21452); experiment: CEREP binding panel; conditions: agonist radioligand, read-out: % Inhibition of Control Specific Binding
# T7 construct: purchased Millipore KinaseProfiler (kinases); Cerep (receptors and ion channels)
# T7 sequence (P21452 whole entry): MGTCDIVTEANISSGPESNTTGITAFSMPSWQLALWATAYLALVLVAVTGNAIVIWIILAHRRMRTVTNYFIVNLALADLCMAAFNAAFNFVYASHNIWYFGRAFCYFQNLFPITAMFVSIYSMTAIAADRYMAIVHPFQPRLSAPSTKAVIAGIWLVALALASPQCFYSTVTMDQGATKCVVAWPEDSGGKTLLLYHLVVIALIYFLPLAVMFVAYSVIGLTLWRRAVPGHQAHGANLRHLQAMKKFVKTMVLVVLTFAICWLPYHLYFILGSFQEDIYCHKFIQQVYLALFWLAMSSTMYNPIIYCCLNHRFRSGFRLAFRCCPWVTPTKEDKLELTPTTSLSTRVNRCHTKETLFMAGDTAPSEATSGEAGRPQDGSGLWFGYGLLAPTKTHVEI
# δ2 (DOP) (h) = target: T8, δ2 (DOP) (h) (Homo sapiens, UniProt P41143); experiment: CEREP binding panel; conditions: 10 μM, agonist radioligand
# T8 construct: purchased Millipore KinaseProfiler (kinases); Cerep (receptors and ion channels)
# κ (KOP) = target: T9, κ (KOP) (Rattus norvegicus, UniProt P34975); experiment: CEREP binding panel; conditions: 10 μM, agonist radioligand
# T9 construct: purchased Millipore KinaseProfiler (kinases); Cerep (receptors and ion channels)
# 5-HT2A (h) = target: T10, 5-HT2A (h) (Homo sapiens, UniProt P28223); experiment: CEREP binding panel; conditions: antagonist radioligand, read-out: % Inhibition of Control Specific Binding
# T10 construct: purchased Millipore KinaseProfiler (kinases); Cerep (receptors and ion channels)
# 5-HT5a (h) = target: T11, 5-HT5a (h) (Homo sapiens, UniProt P47898); experiment: CEREP binding panel; conditions: agonist radioligand, read-out: % Inhibition of Control Specific Binding
# T11 construct: purchased Millipore KinaseProfiler (kinases); Cerep (receptors and ion channels)
# VPAC1 (VIP1) (h) = target: T12, VPAC1 (VIP1) (h) (Homo sapiens, UniProt P32241); experiment: CEREP binding panel; conditions: agonist radioligand, read-out: % Inhibition of Control Specific Binding
# T12 construct: purchased Millipore KinaseProfiler (kinases); Cerep (receptors and ion channels)
# dopamine transporter (h) = target: T13, dopamine transporter (h) (Homo sapiens, UniProt Q01959); experiment: CEREP binding panel; conditions: antagonist radioligand, read-out: % Inhibition of Control Specific Binding
# T13 construct: purchased Millipore KinaseProfiler (kinases); Cerep (receptors and ion channels)
# ARK5 = target: T14, ARK5 (Homo sapiens, UniProt O60285); experiment: Millipore kinase panel; assay type: biochemical; conditions: read-out: % Control
# T14 construct: purchased Millipore KinaseProfiler (kinases); Cerep (receptors and ion channels)
# ASK1 = target: T15, ASK1 (Homo sapiens, UniProt Q99683); experiment: Millipore kinase panel; assay type: biochemical; conditions: read-out: % Control
# T15 construct: purchased Millipore KinaseProfiler (kinases); Cerep (receptors and ion channels)
# T15 sequence (Q99683 whole entry): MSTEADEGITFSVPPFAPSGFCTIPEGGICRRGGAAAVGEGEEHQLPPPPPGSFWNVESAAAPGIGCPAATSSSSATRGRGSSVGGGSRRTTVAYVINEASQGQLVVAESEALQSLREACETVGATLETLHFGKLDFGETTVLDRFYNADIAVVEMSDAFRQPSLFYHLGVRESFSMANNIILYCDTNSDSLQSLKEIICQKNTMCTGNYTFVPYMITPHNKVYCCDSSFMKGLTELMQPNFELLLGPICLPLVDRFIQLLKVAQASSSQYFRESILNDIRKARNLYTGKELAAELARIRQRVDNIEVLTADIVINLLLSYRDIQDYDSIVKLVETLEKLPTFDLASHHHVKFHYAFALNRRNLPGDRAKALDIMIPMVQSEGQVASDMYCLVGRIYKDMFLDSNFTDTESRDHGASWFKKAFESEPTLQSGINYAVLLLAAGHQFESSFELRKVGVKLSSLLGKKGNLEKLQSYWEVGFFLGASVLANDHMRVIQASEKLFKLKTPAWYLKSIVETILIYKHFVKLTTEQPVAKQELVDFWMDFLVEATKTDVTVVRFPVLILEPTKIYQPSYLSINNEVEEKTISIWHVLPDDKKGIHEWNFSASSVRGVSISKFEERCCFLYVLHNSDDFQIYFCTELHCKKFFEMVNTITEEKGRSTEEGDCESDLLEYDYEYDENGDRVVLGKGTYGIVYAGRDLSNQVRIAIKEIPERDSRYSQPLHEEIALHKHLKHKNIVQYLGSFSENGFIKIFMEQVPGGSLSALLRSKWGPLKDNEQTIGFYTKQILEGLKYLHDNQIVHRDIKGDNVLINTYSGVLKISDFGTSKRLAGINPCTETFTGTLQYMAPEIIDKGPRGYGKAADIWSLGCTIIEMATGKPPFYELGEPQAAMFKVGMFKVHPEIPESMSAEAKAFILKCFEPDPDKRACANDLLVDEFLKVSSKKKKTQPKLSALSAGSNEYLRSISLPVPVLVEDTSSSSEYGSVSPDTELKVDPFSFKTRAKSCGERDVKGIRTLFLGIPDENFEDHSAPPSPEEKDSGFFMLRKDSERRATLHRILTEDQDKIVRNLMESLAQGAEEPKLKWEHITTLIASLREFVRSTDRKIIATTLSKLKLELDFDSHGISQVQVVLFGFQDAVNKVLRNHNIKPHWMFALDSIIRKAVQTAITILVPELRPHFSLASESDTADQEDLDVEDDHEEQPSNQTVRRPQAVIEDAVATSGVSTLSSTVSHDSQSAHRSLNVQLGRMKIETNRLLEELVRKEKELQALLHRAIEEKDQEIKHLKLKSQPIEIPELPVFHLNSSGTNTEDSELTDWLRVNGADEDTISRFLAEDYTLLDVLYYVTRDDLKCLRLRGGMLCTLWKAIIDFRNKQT
# BLK = experiment: Millipore kinase panel; assay type: biochemical; conditions: 1 μM, ATP at Km
# CDK5/P25 = target: T16, CDK5/P25 (Homo sapiens, UniProt Q00535); experiment: Millipore kinase panel; assay type: biochemical; conditions: read-out: % Control
# T16 construct: purchased Millipore KinaseProfiler (kinases); Cerep (receptors and ion channels)
# CDK6/CYCLIND3 = target: T17, CDK6/CYCLIND3 (Homo sapiens, UniProt Q00534); experiment: Millipore kinase panel; assay type: biochemical; conditions: read-out: % Control
# T17 construct: purchased Millipore KinaseProfiler (kinases); Cerep (receptors and ion channels)
# EPHA2 = target: T18, EPHA2 (Homo sapiens, UniProt P29317); experiment: Millipore kinase panel; assay type: biochemical; conditions: read-out: % Control
# T18 construct: purchased Millipore KinaseProfiler (kinases); Cerep (receptors and ion channels)
# FGFR2 = target: T19, FGFR2 (Homo sapiens, UniProt P21802); experiment: Millipore kinase panel; assay type: biochemical; conditions: read-out: % Control
# T19 construct: purchased Millipore KinaseProfiler (kinases); Cerep (receptors and ion channels)
# T19 sequence (P21802 22-821): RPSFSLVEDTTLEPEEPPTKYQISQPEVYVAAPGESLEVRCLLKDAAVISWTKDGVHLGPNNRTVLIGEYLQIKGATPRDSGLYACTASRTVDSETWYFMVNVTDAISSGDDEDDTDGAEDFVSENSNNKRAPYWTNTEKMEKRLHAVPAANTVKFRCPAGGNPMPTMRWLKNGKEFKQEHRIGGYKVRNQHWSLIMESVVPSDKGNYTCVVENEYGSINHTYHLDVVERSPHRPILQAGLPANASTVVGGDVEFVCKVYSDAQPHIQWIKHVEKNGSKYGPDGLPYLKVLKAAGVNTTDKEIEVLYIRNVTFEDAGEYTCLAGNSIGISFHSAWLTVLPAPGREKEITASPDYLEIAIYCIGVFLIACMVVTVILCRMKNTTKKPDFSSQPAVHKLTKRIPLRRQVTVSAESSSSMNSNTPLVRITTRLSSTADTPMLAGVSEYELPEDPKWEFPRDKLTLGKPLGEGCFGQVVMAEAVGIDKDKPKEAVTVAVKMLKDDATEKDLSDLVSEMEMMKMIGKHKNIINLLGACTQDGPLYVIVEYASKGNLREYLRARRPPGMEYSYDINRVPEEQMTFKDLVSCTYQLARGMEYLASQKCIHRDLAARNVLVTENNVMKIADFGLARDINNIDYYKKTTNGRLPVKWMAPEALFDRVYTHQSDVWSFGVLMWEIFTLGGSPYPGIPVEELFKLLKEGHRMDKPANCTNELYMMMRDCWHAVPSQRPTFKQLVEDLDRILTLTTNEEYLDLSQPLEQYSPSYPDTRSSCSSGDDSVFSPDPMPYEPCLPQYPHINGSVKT
# FLT1 = target: T20, FLT1 (Homo sapiens, UniProt P17948); experiment: Millipore kinase panel; assay type: biochemical; conditions: read-out: % Control
# T20 construct: purchased Millipore KinaseProfiler (kinases); Cerep (receptors and ion channels)
# FLT3 = target: T21, FLT3 (Homo sapiens, UniProt P36888); experiment: Millipore kinase panel; assay type: biochemical; conditions: read-out: % Control
# T21 construct: purchased Millipore KinaseProfiler (kinases); Cerep (receptors and ion channels)
# FMS = target: T22, FMS (Homo sapiens, UniProt P07333); experiment: Millipore kinase panel; assay type: biochemical; conditions: read-out: % Control
# T22 construct: purchased Millipore KinaseProfiler (kinases); Cerep (receptors and ion channels)
# IRAK4 = target: T23, IRAK4 (Homo sapiens, UniProt Q9NWZ3); experiment: Millipore kinase panel; assay type: biochemical; conditions: read-out: % Control
# T23 construct: purchased Millipore KinaseProfiler (kinases); Cerep (receptors and ion channels)
# MET = target: T24, MET (Homo sapiens, UniProt P08581); experiment: Millipore kinase panel; assay type: biochemical; conditions: read-out: % Control
# T24 construct: purchased Millipore KinaseProfiler (kinases); Cerep (receptors and ion channels)
# MSK1 = target: T25, MSK1 (Homo sapiens, UniProt O75582); experiment: Millipore kinase panel; assay type: biochemical; conditions: read-out: % Control
# T25 construct: purchased Millipore KinaseProfiler (kinases); Cerep (receptors and ion channels)
# MSSK1 = target: T26, MSSK1 (Homo sapiens, UniProt Q9UPE1); experiment: Millipore kinase panel; assay type: biochemical; conditions: read-out: % Control
# T26 construct: purchased Millipore KinaseProfiler (kinases); Cerep (receptors and ion channels)
# T26 sequence (Q9UPE1 whole entry): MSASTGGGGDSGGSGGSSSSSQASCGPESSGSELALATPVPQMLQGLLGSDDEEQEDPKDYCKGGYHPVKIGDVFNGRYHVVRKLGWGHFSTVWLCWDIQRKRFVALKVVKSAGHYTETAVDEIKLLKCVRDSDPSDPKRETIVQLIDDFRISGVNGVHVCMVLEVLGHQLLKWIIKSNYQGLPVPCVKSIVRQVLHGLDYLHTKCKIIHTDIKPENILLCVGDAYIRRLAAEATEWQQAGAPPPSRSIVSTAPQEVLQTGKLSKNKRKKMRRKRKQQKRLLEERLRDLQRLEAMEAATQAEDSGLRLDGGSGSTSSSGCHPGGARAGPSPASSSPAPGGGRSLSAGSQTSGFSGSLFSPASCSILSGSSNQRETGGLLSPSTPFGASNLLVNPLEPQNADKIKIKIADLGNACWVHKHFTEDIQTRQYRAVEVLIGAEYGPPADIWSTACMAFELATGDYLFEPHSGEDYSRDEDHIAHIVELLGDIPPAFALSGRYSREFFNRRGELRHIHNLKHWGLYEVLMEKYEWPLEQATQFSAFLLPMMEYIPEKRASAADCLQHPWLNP
# MST2 = target: T27, MST2 (Homo sapiens, UniProt Q13188); experiment: Millipore kinase panel; assay type: biochemical; conditions: read-out: % Control
# T27 construct: purchased Millipore KinaseProfiler (kinases); Cerep (receptors and ion channels)
# MST3 = target: T28, MST3 (Homo sapiens, UniProt Q9Y6E0); experiment: Millipore kinase panel; assay type: biochemical; conditions: read-out: % Control
# T28 construct: purchased Millipore KinaseProfiler (kinases); Cerep (receptors and ion channels)
# NLK = target: T29, NLK (Homo sapiens, UniProt Q9UBE8); experiment: Millipore kinase panel; assay type: biochemical; conditions: read-out: % Control
# T29 construct: purchased Millipore KinaseProfiler (kinases); Cerep (receptors and ion channels)
# T29 sequence (Q9UBE8 whole entry): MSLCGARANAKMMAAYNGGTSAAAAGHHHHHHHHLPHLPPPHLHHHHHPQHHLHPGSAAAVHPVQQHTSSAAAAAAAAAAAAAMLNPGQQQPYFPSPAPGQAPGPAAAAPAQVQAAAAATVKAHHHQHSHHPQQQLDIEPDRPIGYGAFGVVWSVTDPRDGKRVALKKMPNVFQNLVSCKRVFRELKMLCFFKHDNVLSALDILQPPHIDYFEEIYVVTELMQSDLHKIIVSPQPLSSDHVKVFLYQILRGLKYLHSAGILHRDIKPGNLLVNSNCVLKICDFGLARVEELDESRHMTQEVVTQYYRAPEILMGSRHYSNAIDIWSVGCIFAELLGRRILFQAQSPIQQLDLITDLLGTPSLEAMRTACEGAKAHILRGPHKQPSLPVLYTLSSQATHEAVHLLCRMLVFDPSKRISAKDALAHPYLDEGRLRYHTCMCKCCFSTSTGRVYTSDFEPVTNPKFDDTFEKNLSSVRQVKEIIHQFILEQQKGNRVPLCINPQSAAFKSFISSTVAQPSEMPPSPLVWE
# PAR-1BALPHA = target: T30, PAR-1BALPHA (Homo sapiens, UniProt Q7KZI7); experiment: Millipore kinase panel; assay type: biochemical; conditions: read-out: % Control
# T30 construct: purchased Millipore KinaseProfiler (kinases); Cerep (receptors and ion channels)
# PDGFRBETA = target: T31, PDGFRBETA (Homo sapiens, UniProt P09619); experiment: Millipore kinase panel; assay type: biochemical; conditions: read-out: % Control
# T31 construct: purchased Millipore KinaseProfiler (kinases); Cerep (receptors and ion channels)
# PIM-1 = target: T32, PIM-1 (Homo sapiens, UniProt P11309); experiment: Millipore kinase panel; assay type: biochemical; conditions: read-out: % Control
# T32 construct: purchased Millipore KinaseProfiler (kinases); Cerep (receptors and ion channels)
# PIM-2 = target: T33, PIM-2 (Homo sapiens, UniProt Q9P1W9); experiment: Millipore kinase panel; assay type: biochemical; conditions: read-out: % Control
# T33 construct: purchased Millipore KinaseProfiler (kinases); Cerep (receptors and ion channels)
# CRAF = target: T34, CRAF (Homo sapiens, UniProt P04049); experiment: Millipore kinase panel; assay type: biochemical; conditions: read-out: % Control
# T34 construct: purchased Millipore KinaseProfiler (kinases); Cerep (receptors and ion channels)
# SNK = target: T35, SNK (Homo sapiens, UniProt Q9NYY3); experiment: Millipore kinase panel; assay type: biochemical; conditions: read-out: % Control
# T35 construct: purchased Millipore KinaseProfiler (kinases); Cerep (receptors and ion channels)
# T35 sequence (Q9NYY3 whole entry): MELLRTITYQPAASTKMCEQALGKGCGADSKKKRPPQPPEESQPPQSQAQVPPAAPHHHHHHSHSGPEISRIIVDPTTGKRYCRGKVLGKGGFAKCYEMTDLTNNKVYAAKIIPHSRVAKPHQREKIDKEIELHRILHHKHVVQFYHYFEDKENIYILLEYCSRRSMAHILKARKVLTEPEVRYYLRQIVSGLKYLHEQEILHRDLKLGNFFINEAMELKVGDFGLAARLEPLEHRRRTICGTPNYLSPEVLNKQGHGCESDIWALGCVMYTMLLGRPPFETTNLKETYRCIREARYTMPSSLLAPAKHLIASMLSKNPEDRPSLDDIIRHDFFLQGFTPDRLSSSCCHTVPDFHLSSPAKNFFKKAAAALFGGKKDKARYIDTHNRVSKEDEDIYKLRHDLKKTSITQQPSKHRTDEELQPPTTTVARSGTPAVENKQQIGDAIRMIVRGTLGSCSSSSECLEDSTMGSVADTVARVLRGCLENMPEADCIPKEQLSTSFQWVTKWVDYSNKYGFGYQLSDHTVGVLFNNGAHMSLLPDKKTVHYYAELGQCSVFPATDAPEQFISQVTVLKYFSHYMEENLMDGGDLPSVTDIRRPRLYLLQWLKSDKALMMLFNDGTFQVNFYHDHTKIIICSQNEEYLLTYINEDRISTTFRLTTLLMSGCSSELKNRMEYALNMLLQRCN
# SRPK2 = target: T36, SRPK2 (Homo sapiens, UniProt P78362); experiment: Millipore kinase panel; assay type: biochemical; conditions: read-out: % Control
# T36 construct: purchased Millipore KinaseProfiler (kinases); Cerep (receptors and ion channels)
# T36 sequence (P78362 whole entry): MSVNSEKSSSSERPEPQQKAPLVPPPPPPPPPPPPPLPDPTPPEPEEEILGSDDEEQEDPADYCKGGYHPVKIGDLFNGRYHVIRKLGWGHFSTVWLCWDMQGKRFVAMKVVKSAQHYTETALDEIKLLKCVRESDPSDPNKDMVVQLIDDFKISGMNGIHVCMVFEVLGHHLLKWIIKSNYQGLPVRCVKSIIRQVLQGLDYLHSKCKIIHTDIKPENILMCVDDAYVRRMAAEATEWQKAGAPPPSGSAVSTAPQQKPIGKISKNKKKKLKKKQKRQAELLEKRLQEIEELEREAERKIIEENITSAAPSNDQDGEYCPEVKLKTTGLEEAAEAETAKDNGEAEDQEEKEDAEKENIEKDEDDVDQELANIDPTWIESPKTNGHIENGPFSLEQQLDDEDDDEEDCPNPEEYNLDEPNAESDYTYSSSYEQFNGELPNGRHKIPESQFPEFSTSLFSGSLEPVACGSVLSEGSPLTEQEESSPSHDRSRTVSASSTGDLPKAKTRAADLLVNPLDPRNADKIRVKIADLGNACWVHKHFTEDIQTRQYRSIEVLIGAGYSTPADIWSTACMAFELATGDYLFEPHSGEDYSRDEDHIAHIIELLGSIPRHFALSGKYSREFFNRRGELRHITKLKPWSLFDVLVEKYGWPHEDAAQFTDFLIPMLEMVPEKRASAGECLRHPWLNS
# TRKB = target: T37, TRKB (Homo sapiens, UniProt Q16620); experiment: Millipore kinase panel; assay type: biochemical; conditions: read-out: % Control
# T37 construct: purchased Millipore KinaseProfiler (kinases); Cerep (receptors and ion channels)
# ZAP-70 = target: T38, ZAP-70 (Homo sapiens, UniProt P43403); experiment: Millipore kinase panel; assay type: biochemical; conditions: read-out: % Control
# T38 construct: purchased Millipore KinaseProfiler (kinases); Cerep (receptors and ion channels)
# GRK5 = target: T39, GRK5 (Homo sapiens, UniProt P34947); experiment: Millipore kinase panel; assay type: biochemical; conditions: read-out: % Control
# T39 construct: purchased Millipore KinaseProfiler (kinases); Cerep (receptors and ion channels)
# VRK2 = target: T40, VRK2 (Homo sapiens, UniProt Q86Y07); experiment: Millipore kinase panel; assay type: biochemical; conditions: read-out: % Control
# T40 construct: purchased Millipore KinaseProfiler (kinases); Cerep (receptors and ion channels)
# PIM-3 = target: T41, PIM-3 (Homo sapiens, UniProt Q86V86); experiment: Millipore kinase panel; assay type: biochemical; conditions: read-out: % Control
# T41 construct: purchased Millipore KinaseProfiler (kinases); Cerep (receptors and ion channels)
# TXK = target: T42, TXK (Homo sapiens, UniProt P42681); experiment: Millipore kinase panel; assay type: biochemical; conditions: read-out: % Control
# T42 construct: purchased Millipore KinaseProfiler (kinases); Cerep (receptors and ion channels)
compound,measurement,setting,value
"Cn1cc(-c2ccc(-c3cncc(Cl)c3N3CCC4(CCNC4=O)CC3)cc2)cn1 [Compound 74, 8-(3-Chloro-5-(4-(1-methyl-1H-pyrazol-4-yl)phenyl)pyridin-4-yl)-2,8-diazaspiro[4.5]decan-1-one]",% Inhibition of Control Specific Binding,α2 (non-selective),0%
same,inhibition at 10 µM,β2 (h),6%
same,% Inhibition of Control Specific Binding,CB1 (h),2%
same,inhibition at 10 µM,D1 (h),7%
same,inhibition at 10 µM,H1 (h),16%
same,inhibition at 10 µM,MC4 (h),4%
same,inhibition at 10 µM,M3 (h),46%
same,inhibition at 10 µM,NK2 (h),-17%
same,% Inhibition of Control Specific Binding,δ2 (DOP) (h),22%
same,% Inhibition of Control Specific Binding,κ (KOP),72%
same,inhibition at 10 µM,5-HT2A (h),1%
same,inhibition at 10 µM,5-HT5a (h),1%
same,inhibition at 10 µM,VPAC1 (VIP1) (h),0%
same,inhibition at 10 µM,dopamine transporter (h),40%
same,remaining activity at 1 µM,ARK5,-2%
same,remaining activity at 1 µM,ASK1,-15%
same,% Control,BLK,0% and 6%
same,remaining activity at 1 µM,CDK5/P25,-21%
same,remaining activity at 1 µM,CDK6/CYCLIND3,-3%
same,remaining activity at 1 µM,EPHA2,-7%
same,remaining activity at 1 µM,FGFR2,-6%
same,remaining activity at 1 µM,FLT1,-5%
same,remaining activity at 1 µM,FLT3,-9%
same,remaining activity at 1 µM,FMS,-21%
same,remaining activity at 1 µM,IRAK4,-3%
same,remaining activity at 1 µM,MET,3%
same,remaining activity at 1 µM,MSK1,5%
same,remaining activity at 1 µM,MSSK1,-2%
same,remaining activity at 1 µM,MST2,4%
same,remaining activity at 1 µM,MST3,-7%
same,remaining activity at 1 µM,NLK,0%
same,remaining activity at 1 µM,PAR-1BALPHA,4%
same,remaining activity at 1 µM,PDGFRBETA,-6%
same,remaining activity at 1 µM,PIM-1,-11%
same,remaining activity at 1 µM,PIM-2,13%
same,remaining activity at 1 µM,CRAF,5%
same,remaining activity at 1 µM,SNK,-1%
same,remaining activity at 1 µM,SRPK2,-10%
same,remaining activity at 1 µM,TRKB,-25%
same,remaining activity at 1 µM,ZAP-70,6%
same,remaining activity at 1 µM,GRK5,-5%
same,remaining activity at 1 µM,VRK2,-2%
same,remaining activity at 1 µM,PIM-3,8%
same,remaining activity at 1 µM,TXK,-2%
